Test results from the NIST ThermoML archive (doi:10.1021/je020140j).

Key:
[1] = 101 kPa, Liquid
[2] = molar heat capacity at constant pressure; conditions: 101 kPa, Liquid, Small sample (50 mg) DSC
[3] = xn = mol fraction of the nth substance listed; conditions: 101 kPa, Liquid, x2 = 0
[4] = molar heat capacity at constant pressure; xn = mol fraction of the nth substance listed; conditions: 101 kPa, Liquid, Small sample (50 mg) DSC, x2 = 0

OCCO [1,2-ethanediol]
Conditions	mass density, [1] [kg/m3]	molar heat capacity at constant pressure, [2] [J/K/mol]	viscosity, [1] [mPa·s]
293.15 K	1113.7	147.47	20.83
303.15 K	–	149.71	13.65
313.15 K	1093.6	152	9.443
323.15 K	1084.7	153.8	6.992
333.15 K	1076.4	156.22	5.06
343.15 K	1067.5	159.7	3.987
353.15 K	1060	161	3.021
363.15 K	–	164.98	–
373.15 K	–	168.45	–

O [water] + OCCO
Conditions	mass density, [3] [kg/m3]	molar heat capacity at constant pressure, [4] [J/K/mol]	viscosity, [3] [mPa·s]
293.15 K	–	75.29	1.002
303.15 K	–	75.38	0.797
313.15 K	–	75.21	0.653
323.15 K	–	75.23	0.547
333.15 K	983.2	75.21	0.467
343.15 K	977.8	75.32	0.405
353.15 K	971.8	75.48	0.356
